In ChEMBL document CHEMBL1177789, “Inhibitors for expression of IgE receptor on human mast cell from Puerariae Flos” (Bioorg Med Chem Lett, 2010) one finds inhibition and Activity data, which are given here for two molecules.

Active and inactive are the calls of the source. No cut-off for these calls is given here.

Series [1] concerns HMC1. Briefly: Antiallergic activity in human HMC1 cells assessed as inhibition of IgE […] receptor mRNA expression after 72 hrs by RT-PCR. It counts as functional, cell-based.
Series [2] deals with HMC1. In words: Antiallergic activity in human HMC1 cells assessed as inhibition of IgE […] receptor expression after 72 hrs by flow cytometry. It is filed as functional, cell-based. In general terms: A flow cytometer gives signals particle by particle.
Series [3] can be described thus: Cytotoxicity against human HMC1 cells at 50 uM after 72 hrs. It is filed as cell-based. The following applies: hmc1, 72 h.

`COc1c(O)cc2occ(-c3ccc(O)cc3)c(=O)c2c1O`: the inhibition entry in the series on HMC1 [1] is “Active”. On to `COc1cc2occ(-c3ccc(O)cc3)c(=O)c2cc1OC`, for which, in the series on HMC1 [2], the inhibition entry was “Active”. Besides, the Activity result in series [3] is “Non-toxic”.
